Assay results from publication PMC10821025, “Bioprospection of Tenellins Produced by the Entomopathogenic Fungus Beauveria neobassiana” (Journal of Fungi, 2024).
Converted amounts (≈) assume the structure as drawn.

How the values were obtained:
[1] = tested on: Pseudomonas aeruginosa [PA14]; assay: Serial dilution assay (MIC); assay type: cell-based; conditions: read-out: MIC
Protocol: (§1) All isolated compounds were assessed for their antimicrobial activity using a serial dilution assay over a concentration range from 67 to 0.5 µg/mL following the previously described protocols. In brief, the antimicrobial activity of all isolated metabolites was assessed by determining their minimum inhibitory concentration (MIC) against a range of different pathogens, including five fungal species: Candida albicans [DSM 1665], Mucor hiemalis [DSM 2656], Schizosaccharomyces pombe [DSM 70572], Rhodotorula glutinis [DSM 10134], and Wickerhamomyces anomalus [DSM 6766], as well as various Gram-positive: Staphylococcus aureus [DSM 346], Bacillus subtilis [DSM 10], Mycolicibacterium smegmatis [ATCC 700084], and Gram-negative bacteria: Acinetobacter baumanii [DSM 30008], Escherichia coli [DSM 1116], Chromobacterium violaceum [DSM 30191], and Pseudomonas aeruginosa [PA14]. In our experiments, gentamicin served as the positive control against most bacteria, while nystatin acted as the positive control against all fungi. For specific microorganisms, namely A. baumannii, B. subtilis, and M. smegmatis, ciprofloxacin, oxytetracycline, and kanamycin were used as positive controls, respectively.

[2] = tested on: Mycolicibacterium smegmatis [ATCC 700084]; assay: Serial dilution assay (MIC); assay type: cell-based; conditions: Mycolicibacterium smegmatis, ATCC700084; Mycobacterium smegmatis; read-out: MIC
Protocol: as §1

[3] = tested on: Wickerhamomyces anomalus [DSM 6766]; assay: Serial dilution assay (MIC); assay type: cell-based; conditions: Hansenula anomala, DSM6766
Protocol: as §1

[4] = tested on: Acinetobacter baumanii [DSM 30008]; assay: Serial dilution assay (MIC); assay type: cell-based; conditions: Acinetobacter baumannii, DSM30008
Protocol: as §1

[5] = tested on: Staphylococcus aureus [DSM 346]; assay: Serial dilution assay (MIC); assay type: cell-based; conditions: DSM346, read-out: MIC
Protocol: as §1

[6] = tested on: Candida albicans [DSM 1665]; assay: Serial dilution assay (MIC); assay type: cell-based; conditions: DSM1665, read-out: MIC
Protocol: as §1

[7] = tested on: Rhodotorula glutinis [DSM 10134]; assay: Serial dilution assay (MIC); assay type: cell-based; conditions: DSM10134
Protocol: as §1

[8] = tested on: Bacillus subtilis [DSM 10]; assay: Serial dilution assay (MIC); assay type: cell-based; conditions: DSM10, read-out: MIC
Protocol: as §1

[9] = tested on: Mucor hiemalis [DSM 2656]; assay: Serial dilution assay (MIC); assay type: cell-based; conditions: DSM2656, read-out: MIC
Protocol: as §1

[10] = tested on: Schizosaccharomyces pombe [DSM 70572]; assay: Serial dilution assay (MIC); assay type: cell-based; conditions: DSM70572
Protocol: as §1

[11] = tested on: Escherichia coli [DSM 1116]; assay: Serial dilution assay (MIC); assay type: cell-based; conditions: DSM1116, read-out: MIC
Protocol: as §1

[12] = tested on: Chromobacterium violaceum [DSM 30191]; assay: Serial dilution assay (MIC); assay type: cell-based; conditions: DSM30191, read-out: MIC
Protocol: as §1

[13] = tested on: mouse fibroblasts (L-929); assay: Cytotoxicity assay, L929; assay type: cell-based; conditions: L929 (fibroblast), 5 days of incubation
Protocol: (§2) The cytotoxicity of isolated compounds was determined as previously described over a concentration range between […] against two mammalian cell lines: mouse fibroblasts (L-929) and human endocervical adenocarcinoma (KB-3.1). […] Following 5 days of incubation, we determined the minimum concentration of the tested compounds required to achieve 50% growth inhibition, expressed as IC50 values.

[14] = tested on: S. aureus (DSM 1104) biofilm formation; assay: Biofilm inhibition assay (Crystal Violet staining); assay type: cell-based, Staphylococcus aureus; conditions: for inhibitory activity on S. aureus biofilm formation (in words): 125–7.8 µg/mL; for Biofilm inhibition (% ± SD): S. aureus (DSM 1104); for Biofilm inhibition (% ± SD) / inhibition at 7.8 µg/mL: 7.8 µg/ml; for inhibition at 7.8 µg/mL / inhibition at 15.62 µg/mL / inhibition at 31.25 µg/mL / inhibition at 62.5 µg/mL / inhibition at 125 µg/mL: Staphylococcus aureus, DSM1104, S. aureus (DSM 1104), read-out: Biofilm inhibition (% ± SD)
Protocol: The compounds were evaluated for their ability to inhibit S. aureus (DSM 1104) biofilm formation, following the established procedure. Briefly, serially diluted compounds (125–7.8 µg/mL) were co-incubated with S. aureus in 96-well plates in CASO medium supplemented with 4% of glucose (see Supplementary Materials). Biofilm inhibition was assessed by using Crystal Violet staining after […], with microporenic acid A serving as a positive control and methanol as solvent control.
Biofilm inhibition assays were condu cted acco rding to th e methodolo g y previousl y described (Soliga et al., 2021), targeting the inhibition of biofilm formation in Staphylococcus aureus […]
S. aureus were cultured i n LB and CASO medium at 37 °C for 18 h, respect ivel y, in a shaker at 120 rpm after being thawed from a -20 °C stock solution. The culture's optical densit y at 600 nm (OD600) was measured and adjusted to a 0.1 McFarland standard in M63 minimal medium supplemented with necessar y nutrients and CASO medi um with 4% glucose for S. aureus, respectively. Microtiter plates were loaded with 150 µL of the bacterial suspension containing s eriall y diluted test compounds (7.8 -125 µg/m L) and incubated for 24 h at 37 °C. The evaluation of biofilm inhibition was performed by staining the biofilm with 0.1% cr ystal violet (CV). After staining, the plates were washed, and the biofilm dissolved in 95% ethanol. The absorbance of the dissolved biofilm was measured at 530 nm using a plat e reader. Negative control involved methanol (2.5%) while microporenic acid A at a concentration range of 7.8 to 125 µg/mL were used as the positive control for S. aureus (Chepkirui et al., 2018). All experiments were performed three times, and the standard deviation (SD) was maintained at or below 15% for S. aureus .
Differences between sam ples and the control grou p were determined b y a t wo-tailed Student’s t-test. Statistical significan ce was defined as p < 0.01. Anal ysis was carri ed out using GraphPad Prism 9® (GraphPad Software, San Diego, CA, USA). […]

[15] = tested on: human endocervical adenocarcinoma (KB-3.1); assay: Cytotoxicity assay, KB3.1; assay type: cell-based; conditions: KB3.1 (endocervical adenocarcinoma), 5 days of incubation
Protocol: as §2

[16] = tested on: breast cancer (MCF-7) cell line; assay: Cytotoxicity assay, MCF-7; assay type: cell-based; conditions: Homo sapiens, MCF7, 120 h; MCF-7 (breast), 5 days of incubation; read-out: IC50
[17] = tested on: Curvularia lunata; set-up: method as in doi:10.1016/j.phytol.2021.03.003; conditions: cited from earlier work
[18] = tested on: lung cancer (A-549) cell line; assay: Cytotoxicity assay, A549; assay type: cell-based; conditions: Homo sapiens, 120 h; A549 (lung), 5 days of incubation; read-out: IC50
[19] = tested on: S. aureus; set-up: method as in doi:10.1016/j.phytol.2021.03.003; conditions: cited from earlier work

| MIC [1] | MIC [2] | MIC [3] | MIC [4] | MIC [5] | MIC [6] | MIC [7] | MIC [8] | MIC [9] | MIC [10] | MIC [11] | MIC [12] | Compound | IC50 ([13]; Mus musculus, L929, 120 h) | inhibitory activity on S. aureus biofilm formation (in words) [14] | inhibition at 7.8 µg/mL [14] | inhibition at 15.62 µg/mL [14] | inhibition at 31.25 µg/mL [14] | inhibition at 62.5 µg/mL [14] | inhibition at 125 µg/mL [14] | IC50 ([15]; Homo sapiens, KB 3-1, 120 h) | also measured |
| --- | --- | --- | --- | --- | --- | --- | --- | --- | --- | --- | --- | --- | --- | --- | --- | --- | --- | --- | --- | --- | --- |
| > 67 µg/mL | > 67 µg/mL | > 67 µg/mL | > 67 µg/mL | > 67 µg/mL | > 67 µg/mL | > 67 µg/mL | > 67 µg/mL | > 67 µg/mL | > 67 µg/mL | > 67 µg/mL | > 67 µg/mL | CCC(C)/C=C(C)/C=C/C(=O)C1=C(O)[C@H]([C@H](O)c2ccc(O)cc2)NC1=O (stereo partly shown) [Compound 2, Prototenellin D] | 70.1 µM | promising activities in a dose-dependent manner | 53 ± 7% | 56 ± 8% | 80 ± 10% | 83 ± 9% | 84 ± 17% | 64.7 µM | IC50 (µM) [13]: weak or no activity; Biofilm inhibition (% ± SD) ([14]; listed as prototenellin D (2)): more than 50%; IC50 (µM) [15]: weak or no activity |
| > 67 µg/mL | > 67 µg/mL | > 67 µg/mL | > 67 µg/mL | 66.6 µg/mL (≈ 173 µM) | > 67 µg/mL | > 67 µg/mL | 66.6 µg/mL (≈ 173 µM) | > 67 µg/mL | > 67 µg/mL | > 67 µg/mL | > 67 µg/mL | CCC(/C=C(C)/C=C/C(=O)c1c(O)c(-c2ccc(O)cc2)cn(O)c1=O)CO (stereo not shown) [Compound 5, 15-Hydroxytenellin] | 4.9 to 6.8 µM | – | – | 47 ± 12% | 78 ± 5% | 85 ± 2% | 86 ± 1% | 4.9 to 6.8 µM | IC50 [16]: 8.1 µM; IC50 [13]: 6.8 µM; IC50 [18]: 2.6 µM; IC50 [15]: 6 µM |

| Compound | MIC [1] | MIC [2] | MIC [3] | MIC [4] | MIC [5] | MIC [6] | MIC [7] | MIC [8] | MIC [9] | MIC [10] | MIC [11] | MIC [12] | IC50 ([13]; Mus musculus, L929, 120 h) | inhibitory activity on S. aureus biofilm formation (in words) [14] | inhibition at 7.8 µg/mL [14] | inhibition at 15.62 µg/mL [14] | inhibition at 31.25 µg/mL [14] | inhibition at 62.5 µg/mL [14] | inhibition at 125 µg/mL [14] | IC50 ([15]; Homo sapiens, KB 3-1, 120 h) | also measured |
| --- | --- | --- | --- | --- | --- | --- | --- | --- | --- | --- | --- | --- | --- | --- | --- | --- | --- | --- | --- | --- | --- |
| CCC(C)/C=C(C)/C=C/C(=O)c1c(O)c(-c2ccc(O)cc2)cn(O)c1=O (stereo not shown) [Compound 4, Tenellin] | > 67 µg/mL | > 67 µg/mL | > 67 µg/mL | > 67 µg/mL | 16.6 µg/mL (≈ 44.9 µM) | 66.6 µg/mL (≈ 180 µM) | > 67 µg/mL | 8.3 µg/mL (≈ 22.5 µM) | 66.6 µg/mL (≈ 180 µM) | > 67 µg/mL | > 67 µg/mL | > 67 µg/mL | 0.79 µM | promising activities in a dose-dependent manner | 36 ± 13% | 51 ± 19% | 73 ± 15% | 80 ± 4% | 78 ± 5% | 0.79 µM | IC50 [16]: 2 µM; MIC [17]: 3.13 µg/mL (≈ 8.47 µM); IC50 [18]: 0.24 µM; Biofilm inhibition (% ± SD) ([14]; listed as tenellin (4)): ca. 30%; MIC [19]: 6.25 µg/mL (≈ 16.9 µM) |
